Experimental data: patent publication US20230053540A1, “TREATMENT OF LIVER INJURY” (Massachusetts Institute of Technology, priority 2019, published 2023)

System: hepatocytes
Test: Seq-Well scRNA-Seq of hepatocytes after APAP overdose (signature scores, DEG vs untreated)
Format: in vivo, mouse
Settings: A6 vs UT

SMILES: CC(=O)Nc1ccc(O)cc1 [APAP, acetaminophen]
- Gstz1 pct.1: 0.73
- Gtf2a2 A6logFC: 0.2792
- Gtf2a2 avg_logFC: 0.2792
- Gtf2a2 pct.1: 0.379
- Gtpbp4 avg_logFC: 0.4822
- Gtpbp4 pct.1: 0.477
- Gulo avg_logFC: −0.8017
- H2-Ab1 avg_logFC: 0.461
- H2-Ab1 pct.1: 0.158
- H2-D1 A6logFC: 0.2865
- H2-D1 avg_logFC: 0.2865
- H2-D1 pct.1: 0.766
- H2-Eb1 avg_logFC: 0.3279
- H2-Eb1 pct.1: 0.105
- H3f3b avg_logFC: 0.7029
- H6pd avg_logFC: 0.3437
- H6pd pct.1: 0.623
- Haao avg_logFC: −0.5912
- Hacl1 avg_logFC: −0.7069
- Hagh avg_logFC: −0.674
- Hba-a1 avg_logFC: 0.735
- Hba-a2 avg_logFC: 0.5535
- Hbb-bs avg_logFC: 2.862
- Hbb-bt avg_logFC: 1.43
- Hdac11 avg_logFC: −0.3368
- Hdac11 pct.1: 0.1
- Hdlbp avg_logFC: 0.3457
- Hdlbp pct.1: 0.737
- Heatr1 avg_logFC: 0.406
- Heatr1 pct.1: 0.291
- Hebp1 avg_logFC: −0.6354
- Hectd1 A6logFC: 0.308
- Hectd1 avg_logFC: 0.308
- Hectd1 pct.1: 0.547
- Herc1 A6logFC: 0.2562
- Herc1 avg_logFC: 0.2562
- Herc1 pct.1: 0.246
- Herc4 A6logFC: 0.2675
- Herc4 avg_logFC: 0.2675
- Herc4 pct.1: 0.332
- Herpud1 avg_logFC: −0.4976
- Herpud1 pct.1: 0.535
- Hes6 avg_logFC: −0.5613
- Hgd avg_logFC: −0.7586
- Hibadh avg_logFC: −0.4994
- Hibadh pct.1: 0.542
- Hic2 avg_logFC: 0.2898
- Hic2 pct.1: 0.15
- Hif1a avg_logFC: 0.5169
- Hilpda avg_logFC: 0.7786
- Hint1 avg_logFC: −0.6739
- Hint2 avg_logFC: −0.4243
- Hint2 pct.1: 0.425
- Hipk1 A6logFC: 0.2916
- Hipk1 avg_logFC: 0.2916
- Hipk1 pct.1: 0.337
- Hmgcr A6logFC: 0.4167
- Hmgcr avg_logFC: 0.4167
- Hmgcr pct.1: 0.425
- Hmox1 avg_logFC: 1.348
- Hnf4a avg_logFC: 0.8791
- Hnrnpdl avg_logFC: 0.398
- Hnrnpdl pct.1: 0.406
- Hnrnpu A6logFC: 0.3394
- Hnrnpu avg_logFC: 0.3394
- Hnrnpu pct.1: 0.625
- Hpd avg_logFC: −0.5182
- Hpgd avg_logFC: −0.3878
- Hpgd pct.1: 0.115
- Hpn A6logFC: −0.2686
- Hpn avg_logFC: −0.2686
- Hpn pct.1: 0.406
- Hpx avg_logFC: −0.3033
- Hpx pct.1: 0.988
- Hsbp1 A6logFC: −0.2867
- Hsd3b5 avg_logFC: −1.07
- Hsd17b13 avg_logFC: 0.6808
- Hsp90ab1 avg_logFC: 0.3227
- Hsp90ab1 pct.1: 0.916
- Hspb8 avg_logFC: 0.6339
- Iah1 A6logFC: −0.293
- Iah1 avg_logFC: −0.293
- Iah1 pct.1: 0.446
- Ier5 avg_logFC: 0.289
- Ier5 pct.1: 0.134
- Ifitm3 avg_logFC: −0.4251
- Ifitm3 pct.1: 0.587
- Igfbp2 avg_logFC: −0.299
- Igfbp2 pct.1: 0.68
- Iigp1 avg_logFC: 0.7688
- Il1b avg_logFC: 0.7429
- Il1r1 avg_logFC: 1.245
- Il4ra avg_logFC: 0.2574
- Il4ra pct.1: 0.248
- Il6st avg_logFC: 0.3168
- Il6st pct.1: 0.411
- Il13ra1 avg_logFC: 0.2785
- Il13ra1 pct.1: 0.294
- Impad1 A6logFC: 0.3227
- Impad1 avg_logFC: 0.3227
- Impad1 pct.1: 0.391
